The values below come from BindingDB's records for doi:10.1021/jm801354e (University of Illinois At Chicago, 2009).

pEC50, pKi: −log10 of the molar value. Structures can show the parent of a compound that is named as a salt.

The target of assay [1] is T1, 5-hydroxytryptamine receptor 2B (Homo sapiens, UniProt P41595). The assay can be described thus: Agonist activity at human 5HT2B receptor expressed in HEK293 cells assessed as calcium flux by FLIPR assay.
Assay [2] concerns the target T2, 5-hydroxytryptamine receptor 2A (Homo sapiens, UniProt P28223). Briefly: Agonist activity at human 5HT2A receptor expressed in HEK293 cells assessed as calcium flux by FLIPR assay.
The target of assay [3] is Sodium-dependent noradrenaline transporter (Homo sapiens, UniProt P23975). Briefly: Displacement of [3H]nisoxetine from NET.
Sodium-dependent noradrenaline transporter, sequence (P23975 whole entry): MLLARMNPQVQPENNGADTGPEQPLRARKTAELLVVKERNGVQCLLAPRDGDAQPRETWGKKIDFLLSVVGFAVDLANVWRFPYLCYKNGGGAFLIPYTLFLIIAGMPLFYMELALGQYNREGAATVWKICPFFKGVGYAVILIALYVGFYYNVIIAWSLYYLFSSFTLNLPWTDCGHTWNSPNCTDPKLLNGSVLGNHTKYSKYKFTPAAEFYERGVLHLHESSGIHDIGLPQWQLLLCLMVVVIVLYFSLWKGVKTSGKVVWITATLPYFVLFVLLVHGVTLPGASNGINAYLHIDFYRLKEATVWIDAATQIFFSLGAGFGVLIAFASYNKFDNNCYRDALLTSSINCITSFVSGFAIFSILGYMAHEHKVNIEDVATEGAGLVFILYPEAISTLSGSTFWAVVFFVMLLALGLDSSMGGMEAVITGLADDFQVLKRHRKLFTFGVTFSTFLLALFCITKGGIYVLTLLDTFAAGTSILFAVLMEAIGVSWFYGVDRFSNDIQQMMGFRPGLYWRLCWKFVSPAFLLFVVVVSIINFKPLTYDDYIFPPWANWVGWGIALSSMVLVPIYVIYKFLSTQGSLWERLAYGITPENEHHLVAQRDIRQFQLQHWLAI
For assay [4], the target named is Sodium-dependent dopamine transporter (Homo sapiens, UniProt Q01959). The assay can be described thus: Displacement of [3H]WIN-35428 from DAT.
Sodium-dependent dopamine transporter, sequence (Q01959 whole entry): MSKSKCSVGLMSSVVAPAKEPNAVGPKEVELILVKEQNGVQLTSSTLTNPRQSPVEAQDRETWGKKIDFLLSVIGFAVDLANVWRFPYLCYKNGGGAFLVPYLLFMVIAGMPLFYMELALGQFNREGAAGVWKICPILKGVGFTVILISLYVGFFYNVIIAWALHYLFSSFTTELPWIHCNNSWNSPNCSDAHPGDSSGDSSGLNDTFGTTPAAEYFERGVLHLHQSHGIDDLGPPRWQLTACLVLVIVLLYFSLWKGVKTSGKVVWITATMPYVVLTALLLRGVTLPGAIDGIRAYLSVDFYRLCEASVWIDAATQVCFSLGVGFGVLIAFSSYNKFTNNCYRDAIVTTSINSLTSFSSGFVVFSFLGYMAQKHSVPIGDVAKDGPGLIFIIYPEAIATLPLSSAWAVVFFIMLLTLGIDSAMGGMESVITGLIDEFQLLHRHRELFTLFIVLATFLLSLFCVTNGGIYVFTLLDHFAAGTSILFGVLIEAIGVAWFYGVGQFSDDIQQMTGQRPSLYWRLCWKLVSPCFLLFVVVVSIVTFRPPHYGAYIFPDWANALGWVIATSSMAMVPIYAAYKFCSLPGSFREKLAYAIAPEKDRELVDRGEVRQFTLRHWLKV
For assay [5], the target named is T2, 5-hydroxytryptamine receptor 2A. The assay can be described thus: Displacement of [3H]ketanserin from human 5HT2A receptor.
Assay [6] addresses Sodium-dependent serotonin transporter (Homo sapiens, UniProt P31645). Briefly: Displacement of [3H]citalopram from SERT.
Assay [7] has as its target T3, 5-hydroxytryptamine receptor 2C (Homo sapiens, UniProt P28335).
T3 sequence (P28335 whole entry): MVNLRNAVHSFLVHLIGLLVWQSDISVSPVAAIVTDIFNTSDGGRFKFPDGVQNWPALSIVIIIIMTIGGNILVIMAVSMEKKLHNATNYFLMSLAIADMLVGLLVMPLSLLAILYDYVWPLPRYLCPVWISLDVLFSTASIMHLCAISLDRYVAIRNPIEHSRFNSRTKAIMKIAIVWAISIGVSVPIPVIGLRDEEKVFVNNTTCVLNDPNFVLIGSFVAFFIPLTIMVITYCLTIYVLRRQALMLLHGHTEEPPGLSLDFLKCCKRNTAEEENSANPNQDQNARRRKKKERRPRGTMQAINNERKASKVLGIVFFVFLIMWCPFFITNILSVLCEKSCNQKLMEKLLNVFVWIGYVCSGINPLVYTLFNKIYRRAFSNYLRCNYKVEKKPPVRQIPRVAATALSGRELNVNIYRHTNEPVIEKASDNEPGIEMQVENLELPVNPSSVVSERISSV
Briefly: Displacement of [3H]mesulergine from 5HT2C receptor.

Assay [8] concerns the target T3, 5-hydroxytryptamine receptor 2C. The assay can be described thus: Agonist activity at human 5HT2C receptor expressed in HEK293 cells assessed as calcium flux by FLIPR assay.
For assay [9], the target named is T1, 5-hydroxytryptamine receptor 2B. Briefly: Displacement of [3H]LSD from human 5HT2B receptor.

T2 sequence (P28223 whole entry): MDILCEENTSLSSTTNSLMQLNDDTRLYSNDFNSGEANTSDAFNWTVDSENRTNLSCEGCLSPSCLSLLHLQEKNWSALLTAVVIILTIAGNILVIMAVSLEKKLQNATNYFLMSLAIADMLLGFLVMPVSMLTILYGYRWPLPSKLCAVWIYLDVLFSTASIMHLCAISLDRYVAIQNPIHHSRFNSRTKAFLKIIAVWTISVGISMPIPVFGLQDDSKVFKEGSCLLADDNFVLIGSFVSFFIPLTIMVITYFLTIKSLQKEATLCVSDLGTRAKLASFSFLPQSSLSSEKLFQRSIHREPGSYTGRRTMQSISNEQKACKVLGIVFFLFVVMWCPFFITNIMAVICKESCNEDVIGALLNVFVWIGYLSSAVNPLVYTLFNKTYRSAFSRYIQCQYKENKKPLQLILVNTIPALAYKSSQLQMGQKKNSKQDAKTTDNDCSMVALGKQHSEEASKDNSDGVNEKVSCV
T1 sequence (P41595 whole entry): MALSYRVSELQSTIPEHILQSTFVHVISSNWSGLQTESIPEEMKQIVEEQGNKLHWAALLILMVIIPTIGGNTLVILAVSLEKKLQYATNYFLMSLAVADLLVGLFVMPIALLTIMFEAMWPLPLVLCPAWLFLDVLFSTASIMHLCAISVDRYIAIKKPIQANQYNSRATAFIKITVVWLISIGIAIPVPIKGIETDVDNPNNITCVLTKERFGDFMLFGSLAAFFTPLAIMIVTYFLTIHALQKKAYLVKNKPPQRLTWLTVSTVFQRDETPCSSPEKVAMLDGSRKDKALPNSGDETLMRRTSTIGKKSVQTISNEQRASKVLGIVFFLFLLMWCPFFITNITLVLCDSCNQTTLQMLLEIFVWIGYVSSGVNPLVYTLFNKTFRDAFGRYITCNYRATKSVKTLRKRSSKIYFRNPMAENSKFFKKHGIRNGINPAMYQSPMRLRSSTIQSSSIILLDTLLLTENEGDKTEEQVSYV
Sodium-dependent serotonin transporter, sequence (P31645 whole entry): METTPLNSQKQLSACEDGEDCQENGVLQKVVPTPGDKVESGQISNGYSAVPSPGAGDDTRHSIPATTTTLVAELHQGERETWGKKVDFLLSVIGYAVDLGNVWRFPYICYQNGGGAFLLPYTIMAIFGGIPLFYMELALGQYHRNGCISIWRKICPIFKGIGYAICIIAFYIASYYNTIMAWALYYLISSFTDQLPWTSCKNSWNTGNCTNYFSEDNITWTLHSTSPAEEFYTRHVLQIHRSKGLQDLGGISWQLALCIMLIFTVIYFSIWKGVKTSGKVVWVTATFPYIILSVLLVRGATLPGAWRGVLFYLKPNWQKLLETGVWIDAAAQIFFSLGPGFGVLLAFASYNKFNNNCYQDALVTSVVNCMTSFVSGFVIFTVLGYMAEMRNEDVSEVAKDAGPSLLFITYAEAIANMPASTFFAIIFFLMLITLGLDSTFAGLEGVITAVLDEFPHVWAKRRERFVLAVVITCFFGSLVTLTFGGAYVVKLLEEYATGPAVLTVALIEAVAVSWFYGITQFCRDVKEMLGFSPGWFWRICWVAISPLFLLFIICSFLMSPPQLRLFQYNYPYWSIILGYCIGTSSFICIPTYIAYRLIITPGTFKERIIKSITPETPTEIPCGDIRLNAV

For `NC[C@H]1C[C@@H]1c1ccc(F)cc1Cl` (relative stereo) [trans-[2-(2-Chloro-4-fluorophenyl)cyclopropyl]methylamine Hydrochloride], the pEC50 in [1] is 7.66; in [2] it was 7.04; in [8] it was 8.52. The pKi in [3] was < 5.00; in assay [4], < 5.00; in assay [5], 6.60; in assay [6], 5.98; in [7] it was 6.69; in assay [9], 7.80.

Consider `Cc1cccc([C@H]2C[C@@H]2CN)c1` (relative stereo) [trans-[2-(3-Methylphenyl)cyclopropyl]methylamine Hydrochloride], for which the pEC50 in assay [1] was 7.19; in assay [2] it was 6.23; in assay [8] it was 8.32. For the same molecule, the pKi in [3] was < 5.00; in [4], 5.27; in [5], 5.73; in assay [6], 5.26; in [7], 6.57; in assay [9], 7.07.

For the molecule `NC[C@H]1C[C@@H]1c1ccc(Br)cc1` (relative stereo) [trans-[2-(4-Bromophenyl)cyclopropyl]methylamine Hydrochloride], the pEC50 in assay [1] is 5.56; in assay [2] it was < 6.00; in assay [8], 6.86.

As to `NC[C@H]1C[C@@H]1c1ccc(Cl)cc1F` (relative stereo) [trans-[2-(4-Chloro-2-fluorophenyl)cyclopropyl]methylamine Hydrochloride], the pEC50 was 6.34 in assay [1], 6.11 in assay [2] and 6.89 in [8].

In the case of `NC[C@H]1C[C@@H]1c1ccc(Cl)cc1` (relative stereo) [trans-[2-(4-Chlorophenyl)cyclopropyl]methylamine Hydrochloride], the pEC50 is 6.39 in assay [1], 5.35 in [2] and 7.12 in [8].

Consider `Cc1cc([C@H]2C[C@@H]2CN)ccc1F` (relative stereo) [trans-[2-(4-Fluoro-3-methylphenyl)cyclopropyl]methylamine Hydrochloride], for which the pEC50 in assay [1] was 8.31; in assay [2] it was 6.63; in assay [8] it was 8.22.

As for `NC[C@H]1C[C@@H]1c1ccc(F)cc1` (relative stereo) [trans-[2-(4-Fluorophenyl)cyclopropyl]methylamine Hydrochloride], the pEC50 in assay [1] is 7.68; in assay [2], 6.29; in assay [8], 8.27. Moreover, the pKi is 5.17 in assay [3]; 5.49 in assay [4]; 5.56 in assay [5]; 5.57 in [6]; 6.62 in assay [7]; 7.05 in [9].

For the molecule `Cc1ccc([C@H]2C[C@@H]2CN)cc1` (relative stereo) [trans-[2-(4-Methylphenyl)cyclopropyl]methylamine Hydrochloride], the pEC50 in [1] was 7.43; in assay [2], 5.71; in assay [8] it was 6.87.

For `NC[C@H]1C[C@@H]1c1ccc(F)cc1F` [trans-[2-(2,4-Difluorophenyl)cyclopropyl]methylamine Hydrochloride], the pEC50 was 6.38 in [1], 6.26 in assay [2] and 7.38 in [8].

For the molecule `Cc1ccc(Cl)c([C@H]2C[C@@H]2CN)c1F` [trans-[2-(6-Chloro-2-fluoro-3-methylphenyl)cyclopropyl]methylamineHydrochloride], the pEC50 in assay [1] was 6.94; in [2] it was 6.48; in assay [8], 7.89.
